# Data published in US11873291B2, “Quinoline cGAS antagonist compounds” (ImmuneSensor Therapeutics, Inc., priority 2020, dated 2024).
# Read-outs that look alike come from different tables or passages of the source.
# Biological target: T1, recombinant human cGAS (aa147-522) (Homo sapiens, UniProt Q8N884)
# T1 construct: recombinant human cGAS (aa147-522); His6-SUMO (cleaved yes); made in house; host or cells: E. coli BL21/pLys
# Experiment: In vitro inhibition assay of cGAS activity (ATP consumption, KinaseGlo Max)
# Format: biochemical
# Procedure: Expression and Purification of Recombinant cGAS Protein: cDNA encoding full-length or amino acids […] of human cGAS was inserted into a modified pET28a vector containing an in-frame His6-SUMO tag. The E. coli strain BL21/pLys harboring the plasmid was induced with 0.5 mM IPTG at 18° C. overnight. His6-SUMO tag was removed by a SUMO protease digestion following purification of the His6-SUMO-cGAS as described previously (Sun et al, 2013, Science 339, 786).
# In vitro inhibition assay of cGAS activity: A 60 μL mixture containing 20 mM Tris-Cl, pH 7.5, 5 mM MgCl2, 0.2 mg/mL BSA, 0.01 mg/mL Herring testis DNA, 6.6 μM ATP, 0.1 mM GTP, 1.5 μg/mL of recombinant human cGAS (aa147-522) and serial dilutions of a test compound in DMSO was added to a 96-well plate and incubated at 37° C. for 20 minutes. At the end of reaction, 40 μL of KinaseGlo Max (Promega) was added and chemiluminescence was measured with a luminometer. Inhibitory effect of a compound is evaluated by plotting percentage of ATP consumption against logarithm of compound concentrations. IC50 value was calculated using GraphPad Prism 8 (GraphPad Software, Inc.).
# The letter codes for cGAS IC50 include: A (<2 μM); B (2-30 μM); C (>30 μM).
# [1] = Table 2, read-out: cGAS Inhibition Results IC50
# [2] = Table 3, read-out: cGAS Inhibition Results IC50
# T1 sequence (Q8N884 147-522): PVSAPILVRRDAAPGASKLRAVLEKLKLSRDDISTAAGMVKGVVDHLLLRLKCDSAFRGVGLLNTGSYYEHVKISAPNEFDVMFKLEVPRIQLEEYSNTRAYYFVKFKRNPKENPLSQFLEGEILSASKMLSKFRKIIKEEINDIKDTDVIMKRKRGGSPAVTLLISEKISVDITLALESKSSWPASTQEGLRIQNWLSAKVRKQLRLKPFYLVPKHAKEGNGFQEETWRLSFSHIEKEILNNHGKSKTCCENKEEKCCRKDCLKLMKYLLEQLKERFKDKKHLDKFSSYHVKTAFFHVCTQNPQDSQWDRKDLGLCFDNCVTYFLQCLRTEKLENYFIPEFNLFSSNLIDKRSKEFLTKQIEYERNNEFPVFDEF
SMILES,IC50 [1] [µM],IC50 [2] [µM]
"CS(=O)(=O)N1CCN(c2cc(-n3ccnc3)c3ccc(Cl)cc3n2)CC1 [I-78, 7-chloro-4-(1H-imidazol-1-yl)-2-(4-(methylsulfonyl)piperazin-1-yl) quinoline]",> 30,–
C[C@@H](CS(N)(=O)=O)Nc1cc(-n2ccnc2)c2ccc(Cl)c(Cl)c2n1 [I-206],2 to 30,–
CN(CCS(=O)(=O)NC1CCC(C(=O)O)C1)c1cc(-n2ccnc2)c2ccc(Cl)c(Cl)c2n1 (centres unmarked) [I-625],–,< 2
Cc1cc(N2CCCNC(=O)C2)c2ccc(Cl)c(Cl)c2n1 [I-305],> 30,–
Cc1cc(N(C)CC(N)=O)c2ccc(Cl)c(Cl)c2n1 [I-314],> 30,–
OCC(CO)Nc1cc(-n2ccnc2)c2ccc(Cl)c(Cl)c2n1 [I-249],< 2,–
O=C(O)C1CN(c2cc(-c3cn[nH]c3)c3ccc(Cl)c(Cl)c3n2)CCO1 (centres unmarked) [I-369],< 2,–
"O=C(O)CCOC[C@@H]1CCCN1c1cc(N2CC[C@@H](O)C2)c2ccc(Cl)c(Cl)c2n1 [I-821, 3-(((S)-1-(7,8-dichloro-4-((R)-3-hydroxypyrrolidin-1-yl)quinolin-2-yl)pyrrolidin-2-yl)methoxy)propanoic acid]",–,> 30
CN(CCS(=O)(=O)O)c1cc(-n2ccnc2)c2ccc(Cl)c(Cl)c2n1 [I-159],< 2,–
COC(=O)[C@@H]1Cc2ccccc2N1c1cc(-n2ccnc2)c2ccc(Cl)c(Cl)c2n1 [I-581],–,2 to 30
FC(F)(F)c1cc(-n2ccnc2)c2ccc(Cl)cc2n1 [I-422],> 30,–
"O=C(O)c1cccc(-c2cc(-c3ccn[nH]3)c3ccc(Cl)cc3n2)c1 [I-74, 3-(7-Chloro-4-(1H-pyrazol-5-yl)quinolin-2-yl)benzoic acid]",> 30,–
CC(C)[C@H](CS(N)(=O)=O)Nc1cc(-n2ccnc2)c2ccc(Cl)c(Cl)c2n1 [I-209],> 30,–
O=C(O)C1CCCN(C(=O)[C@@H]2CCCN2c2cc(-n3ccnc3)c3ccc(Cl)c(Cl)c3n2)C1 (some centres unmarked) [I-546],–,2 to 30
O=C(O)c1ccc(C2CCCN2c2cc(-n3ccnc3)c3ccc(Cl)c(Cl)c3n2)s1 (centres unmarked) [I-468],–,2 to 30
O=C(O)[C@@H]1C[C@@H](NS(=O)(=O)c2ccccc2)CN1c1cc(-n2ccnc2)c2ccc(Cl)c(Cl)c2n1 [I-349],< 2,–
O=C1COc2ccc(S(=O)(=O)NC[C@@H]3CCCN3c3cc(-n4ccnc4)c4ccc(Cl)c(Cl)c4n3)cc2N1 [I-393],> 30,–

SMILES,IC50 [1] [µM],IC50 [2] [µM]
C[C@H](CC(=O)O)Nc1cc(-n2ccnc2)c2ccc(Cl)c(Cl)c2n1 [I-185],2 to 30,–
"O=P(O)(O)CNc1cc(-c2cn[nH]c2)c2ccc(Cl)c(Cl)c2n1 [I-254, (7,8-dichloro-4-(1H-pyrazol-4-yl)quinolin-2-ylamino)methylphosphonic acid]",< 2,–
Cc1ncn(-c2cc(-c3ccccc3)nc3cc(Cl)ccc23)c1C [I-61],> 30,–
Cc1cc(NCCC(=O)O)c2ccc(Cl)c(Cl)c2n1 [I-309],> 30,–
CN(CCNC(=O)C1CCC(C(=O)O)C1)c1cc(-n2ccnc2)c2ccc(Cl)c(Cl)c2n1 (centres unmarked) [I-615],–,2 to 30
Cc1cn(-c2cc(-c3ccccc3)nc3cc(Cl)ccc23)cn1 [I-60],> 30,–
CC(C)(NC(=O)C[C@@H]1CCCN1c1cc(-n2ccnc2)c2ccc(Cl)c(Cl)c2n1)C(=O)O [I-387],< 2,–
"O=P(O)(O)OC1CCCN(c2cc(-n3ccnc3)c3ccc(Cl)c(Cl)c3n2)C1 (centres unmarked) [I-112, 1-(7,8-dichloro-4-(1H-imidazol-1-yl)quinolin-2-yl)piperidin-3-yl dihydrogen phosphate]",< 2,–
COC[C@@H]1CCCN1c1cc(-n2ccnc2)c2ccc(Cl)c(Cl)c2n1 [I-147],< 2,–
O=C(O)CCOCC(COCCC(=O)O)Nc1cc(-n2ccnc2)c2ccc(Cl)c(Cl)c2n1 [I-874],–,< 2
O=C(O)[C@@H]1C[C@H](O)CN1c1cc(-n2ccnc2)c2ccc(Cl)c(Cl)c2n1 [I-455],–,< 2
CN(CCS(=O)(=O)NC1CCCC(C(=O)O)C1)c1cc(-n2ccnc2)c2ccc(Cl)c(Cl)c2n1 (centres unmarked) [I-628],–,< 2
OC1CCN(c2cc(-n3ccnc3)c3ccc(Cl)c(Cl)c3n2)CC1 [I-132],2 to 30,–
O=S(=O)(O)C1CCCN(c2cc(-n3ccnc3)c3ccc(Cl)c(Cl)c3n2)C1 (centres unmarked) [I-115],< 2,–
CCOC(=O)C1CCN(c2cc(-n3ccnc3)c3ccc(Cl)cc3n2)C1 (centres unmarked) [I-447],> 30,–
"O[C@@H]([C@@H]1CCCN1c1cc(-n2ccnc2)c2ccc(Cl)c(Cl)c2n1)C(F)(F)F [I-654, (S)-1-((S)-1-(7,8-dichloro-4-(1H-imidazol-1-yl)quinolin-2-yl)pyrrolidin-2-yl)-2,2,2-trifluoroethan-1-ol]",–,< 2
NS(=O)(=O)CCNc1cc(-c2cn[nH]c2)c2cc(Cl)c(Cl)cc2n1 [I-260],< 2,–

# Other lines, results leading:
IC50 [1] [µM],IC50 [2] [µM],SMILES
2 to 30,–,OCC1CCCN(c2cc(-n3ccnc3)c3ccc(Cl)cc3n2)C1 (centres unmarked) [I-140]
–,2 to 30,O=C(O)c1cccc(S(=O)(=O)NC[C@@H]2CCCN2c2cc(-n3ccnc3)c3ccc(Cl)c(Cl)c3n2)c1 [I-638]
–,< 2,CN(CCNC(=O)CCC(=O)O)c1cc(-n2ccnc2)c2ccc(Cl)c(Cl)c2n1 [I-616]
2 to 30,–,COc1cccc(-c2cc(-n3ccnc3)c3ccc(Br)cc3n2)c1 [I-382]
< 2,–,"O=P(O)(O)CCCNc1cc(-c2cn[nH]c2)c2ccc(Cl)c(Cl)c2n1 [I-397, (3-((7,8-dichloro-4-(1H-pyrazol-4-yl)quinolin-2-yl)amino)propyl)phosphonic acid]"
< 2,–,O=C(O)c1cc(-c2cc(-n3ccnc3)c3ccc(Cl)cc3n2)cs1 [I-55]
> 30,–,O=C(O)CNc1cc(-c2ccn[nH]2)nc2c(Cl)c(Cl)ccc12 [I-426]
< 2,–,OC[C@@H]1C[C@@H](O)CN1c1cc(-n2ccnc2)c2ccc(Cl)c(Cl)c2n1 [I-142]
< 2,–,"O=C(O)[C@H](CO)Nc1cc(-n2ccnc2)c2ccc(Cl)c(Cl)c2n1 [I-168, (7,8-Dichloro-4-(1H-imidazol-1-yl)quinolin-2-yl)serine]"
–,2 to 30,COC(=O)[C@H]1[C@@H](O)CCN1c1cc(-n2ccnc2)c2ccc(Cl)c(Cl)c2n1 [I-500]
–,2 to 30,O=C(O)c1cccn1-c1cc(-n2ccnc2)c2ccc(Cl)c(Cl)c2n1 [I-506]
2 to 30,–,Cn1cnc(S(=O)(=O)NC2CCCN(c3cc(-n4ccnc4)c4ccc(Cl)cc4n3)C2)c1 (centres unmarked) [I-103]
< 2,–,CCN1CCN(c2cc(-n3ccnc3)c3ccc(Cl)c(Cl)c3n2)CC1C(=O)O (centres unmarked) [I-80]
< 2,–,O=C(O)c1cc(C(=O)O)cc(-c2cc(-n3ccnc3)c3ccc(Cl)cc3n2)c1 [I-28]
–,< 2,NC(=O)[C@@H]1[C@@H](O)CCN1c1cc(-n2ccnc2)c2ccc(Cl)c(Cl)c2n1 [I-557]
< 2,–,NS(=O)(=O)C1CCN(c2cc(-n3ccnc3)c3ccc(Cl)c(Cl)c3n2)C1 (centres unmarked) [I-150]
> 30,–,CN(C)C(=O)[C@@H]1CCCN1c1cc(-n2ccnc2)c2ccc(Cl)c(Cl)c2n1 [I-453]
< 2,–,OC[C@@H]1CCCN1c1cc(-c2cn[nH]c2)c2ccc(Cl)c(Cl)c2n1 [I-138]
2 to 30,–,CC(CNc1cc(-n2ccnc2)c2ccc(Cl)c(Cl)c2n1)S(N)(=O)=O (centres unmarked) [I-210]
–,< 2,O=C(O)c1ccc(S(=O)(=O)NC[C@@H]2CCCN2c2cc(-n3ccnc3)c3ccc(Cl)c(Cl)c3n2)cc1 [I-640]
> 30,–,Clc1ccc2c(-n3cncc3C3CC3)cc(-c3ccccc3)nc2c1 [I-65]
< 2,–,O=C(O)[C@H]1CCCN1C(=O)C[C@@H]1CCCN1c1cc(-n2ccnc2)c2ccc(Cl)c(Cl)c2n1 [I-386]
